In this test the test system is Aβ42 production. The test is described as follows: Quantification of Aβ peptide in culture of neurons from rat fetus brain (Aβ ELISA). Conditions: Neuron, 72 h; rat primary neuronal culture (cerebral cortex, embryonic day 18 Wistar rats); medium collected three days after addition of the compound; Aβx-42 ELISA; read-out: Aβ42 production reducing effect IC50. In kind it is cell-based. The protocol:
Quantification of Aβ Peptide in Culture of Neurons from Rat Fetus Brain
(1) Rat Primary Neuronal Culture
Primary neuronal cultures were prepared from the cerebral cortex of embryonic day 18 Wistar rats (Charles River Japan, Yokohama, Japan). Specifically, the embryos were aseptically removed from pregnant rats under ether anesthesia. The brain was isolated from the embryo and immersed in an ice-cold L-15 medium (such as Invitrogen Corp. Cat #11415-064, Carlsbad, Calif., USA, or SIGMA L1518). The cerebral cortex was collected from the isolated brain under a stereoscopic microscope. The cerebral cortex fragments collected were enzymatically treated in an enzyme solution containing 0.25% trypsin (Invitrogen Corp. Cat #15050-065, Carlsbad, Calif., USA) and 0.01% DNase (Sigma D5025, St. Louis, Mo., USA) at 37° C. for 30 minutes to disperse the cells. Here, the enzymatic reaction was stopped by adding inactivated horse serum to the solution. The enzymatically treated solution was centrifuged at 1,500 rpm for five minutes to remove the supernatant. 5 to 10 mL of a medium was added to the resulting cell mass. Neurobasal medium (Invitrogen Corp. Cat #21103-049, Carlsbad, Calif., USA) supplemented with 2% B27 supplement (Invitrogen Corp. Cat #17504-044, Carlsbad, Calif., USA), 25 μM 2-mercaptoethanol (2-ME, WAKO Cat #139-06861, Osaka, Japan), 0.5 mM L-glutamine (Invitrogen Corp. Cat #25030-081, Carlsbad, Calif., USA), and Antibiotics-Antimycotics (Invitrogen Corp. Cat #15240-062, Carlsbad, Calif., USA) was used as the medium (Neurobasal/B27/2-ME). However, the above Neurobasal medium not supplemented with 2-ME (Neurobasal/B27) was used for the assay. The cells were redispersed by mild pipetting of the cell mass to which the medium was added. The cell dispersion was filtered through a 40-μm nylon mesh (Cell Strainer, Cat #35-2340, Becton Dickinson Labware, Franklin Lakes, N.J., USA) to remove the remaining cell mass, and thus a neuronal cell suspension was obtained. The neuronal cell suspension was diluted with the medium and then plated in a volume of 100 μL/well at an initial cell density of 5×10^5 cells/cm^2 in a 96-well polystyrene culture plate pre-coated with poly-L or D-lysine (Falcon Cat #35-3075, Becton Dickinson Labware, Franklin Lakes, N.J., USA coated with poly-L-lysine using the method shown below, or BIOCOAT™ cell environments Poly-D-lysine cell ware 96-well plate, Cat #35-6461, Becton Dickinson Labware, Franklin Lakes, N.J., USA). Poly-L-lysine coating was carried out as follows. 100 μg/mL of a poly-L-lysine (SIGMA P2636, St. Louis, Mo., USA) solution was aseptically prepared with a 0.15 M borate buffer (pH 8.5). […] of the solution was added to the 96-well polystyrene culture plate and incubated at room temperature for one or more hours or at 4° C. overnight or longer. Thereafter, the coated 96-well polystyrene culture plate was washed with sterile water four or more times, and then dried or rinsed with, for example, sterile PBS or medium, and used for cell plating. The plated cells were cultured in the culture plate at 37° C. in 5% CO2-95% air for one day. Then, the total amount of the medium was replaced with a fresh Neurobasal™/B27/2-ME medium, and then the cells were cultured for further three days.
The drug was added to the culture plate on Day 4 of culture as follows. The total amount of the medium was removed from the wells, and 180 μL/well of Neurobasal medium not containing 2-ME and containing 2% B-27 (Neurobasal/B27) was added thereto. A solution of the test compound in dimethyl sulfoxide (hereinafter abbreviated as DMSO) was diluted with Neurobasal/B27 to a concentration 10-fold higher than the final concentration. 20 μL/well of the dilution was added to and sufficiently mixed with the medium. The final DMSO concentration was 1% or less. Only DMSO was added to the control group.
The cells were cultured for three days after addition of the compound, and the total amount of the medium was collected. […]
For orientation: ELISA stands for enzyme-linked immunosorbent assay.

What is called IC50 is the midpoint of a concentration-inhibition curve.

As to `COc1ccc(NC(=O)c2ccc(Cl)cn2)cc1[C@]12CCC[C@H]1CSC(N)=N2` (racemic) [Example 34, (±)-N-[3-((4aR*,7aS*)-2-amino-4a,5,6,7-tetrahydro-4H-cyclopenta[d][1,3]thiazin-7a-yl)-4-methoxyphenyl]-5-chloropyridine-2-carboxamide], the IC50 came out at 115 nM.
Take `NC1=N[C@@]2(c3cccc(-c4cccnc4F)c3)CN(c3ccccc3)C[C@H]2CS1` (racemic) [Example 36, (±)-(4aR,7aS)-7a-[3-(2-fluoro-pyridin-3-yl)phenyl]-6-phenyl-4,4a,5,6,7,7a-hexahydropyrrolo[3,4-d][1,3]thiazin-2-ylamine]: the IC50 stood at 384 nM.
As to `NC1=N[C@@]2(c3cccc(-c4cccnc4F)c3)CN(c3ncccn3)C[C@H]2CS1` (racemic) [Example 37, (±)-(4aR*,7aS*)-7a-[3-(2-fluoropyridin-3-yl)phenyl]-6-pyrimidin-2-yl-4,4a,5,6,7,7a-hexahydropyrrolo[3,4-d][1,3]thiazin-2-ylamine], the 50% inhibitory concentration (IC50) amounted to 29 nM.
Turning to `NC1=N[C@@]2(c3cc(NC(=O)c4ccc(Cl)cn4)ccc3OC(F)(F)F)CCOC[C@H]2CS1` (racemic) [Example 149], the IC50 came out at 414 nM.
For `N#Cc1ccc(C(=O)Nc2cc(F)cc([C@]34CCC[C@H]3CSC(N)=N4)c2)nc1` (racemic) [Example 158, (±)-N-[3-((4aR*,7aS*)-2-amino-4a,5,6,7-tetrahydro-4H-cyclopenta[d][1,3]thiazin-7a-yl)-5-fluorophenyl]-5-cyanopyridine-2-carboxamide], the IC50 was found to be 53 nM.
Regarding `NC1=N[C@@]2(c3cc(-c4cccnc4F)ccc3F)CCC[C@H]2CS1` (racemic) [Example 160, (±)-(4aR*,7aS*)-7a-[2-fluoro-5-(2-fluoropyridin-3-yl)phenyl]-4,4a,5,6,7,7a-hexahydrocyclopenta[d][1,3]thiazin-2-ylamine], the IC50 is 521 nM.
For `NC1=N[C@@]2(c3cccc(-c4cccnc4F)c3)CN(c3ccc(F)cc3)C[C@H]2CS1` (racemic) [Example 226, (±)-(4aR*,7aS*)-6-(4-fluorophenyl)-7a-[3-(2-fluoropyridin-3-yl)phenyl]-4,4a,5,6,7,7a-hexahydropyrrolo[3,4-d][1,3]thiazin-2-ylamine], the IC50 came to 233 nM.
For `N#Cc1cccc(-c2cccc([C@]34CN(c5cnccn5)C[C@H]3CSC(N)=N4)c2)c1` (racemic) [Example 229, (±)-3′44aR*,7aS*)-2-amino-6-pyrazin-2-yl-4a,5,6,7-tetrahydro-4H-pyrrolo[3,4-d][1,3]thiazin-7a-yl)biphenyl-3-carbonitrile], the IC50 was determined as 544 nM.
For the compound `N#Cc1ccc(C(=O)Nc2cc(Cl)cc([C@]34CCC[C@H]3CSC(N)=N4)c2)nc1` (racemic) [Example 240, (±)-N-[3-((4aR*,7aS*)-2-amino-4a,5,6,7-tetrahydro-4H-cyclopenta[d][1,3]thiazin-7a-yl)-5-chlorophenyl]-5-cyanopyridine-2-carboxamide], the IC50 was determined as 39 nM.
Regarding `NC1=N[C@@]2(c3cc(-c4cccnc4F)c(F)cc3F)CCCC[C@H]2CS1` (racemic) [Example 245, (±)-(4aR*,8aS*)-8a-[2,4-difluoro-5-(2-fluoropyridin-3-yl)phenyl]-4a,5,6,7,8,8a-hexahydro-4H-benzo[d][1,3]thiazin-2-ylamine], the concentration for half-maximal inhibition (IC50) was 1160 nM.
With `NC1=N[C@@]2(c3cc(NC(=O)c4ccc(Cl)cn4)ccc3F)CCC[C@H]2CS1` (relative stereo) [Example 5, (+)-N-[3-((4aR*,7aS*)-2-amino-4a,5,6,7-tetrahydro-4H-cyclopenta[d][1,3]thiazin-7a-yl)-4-fluorophenyl]-5-chloropyridine-2-carboxamide] the figure was 3 nM; with `NC1=N[C@@]2(c3cc(NC(=O)c4ccccn4)ccc3F)CCC[C@H]2CS1` (relative stereo) [Example 6, N-[3-((4aR*,7aS*)-2-amino-4a,5,6,7-tetrahydro-4H-cyclopenta[d][1,3]thiazin-7a-yl)-4-fluorophenyl]pyridine-2-carboxamide], 88 nM; with `NC1=N[C@@]2(c3cc(NC(=O)c4ccc(F)cn4)ccc3F)CCC[C@H]2CS1` (relative stereo) [Example 9, N-[3-((4aR*,7aS*)-2-amino-4a,5,6,7-tetrahydro-4H-cyclopenta[d][1,3]thiazin-7a-yl)-4-fluorophenyl]-5-fluoropyridine-2-carboxamide], 28 nM.
Regarding `N#Cc1ccc(C(=O)Nc2ccc(F)c([C@]34CCCC[C@H]3CSC(N)=N4)c2)nc1` (relative stereo) [Example 19, N-[3-((4aR*,8aS*)-2-amino-4,4a,5,6,7,8-hexahydrobenzo[d][1,3]thiazin-8a-yl)-4-fluorophenyl]-5-cyanopyridine-2-carboxamide], the IC50 came to 45 nM.
Turning to `NC1=N[C@@]2(c3cc(NC(=O)c4cnc(OCF)cn4)ccc3F)CCC[C@H]2CS1` (relative stereo) [Example 21, N-[3-((4aR*,7aS*)-2-amino-4a,5,6,7-tetrahydro-4H-cyclopenta[d][1,3]thiazin-7a-yl)-4-fluorophenyl]-5-fluoromethoxypyrazine-2-carboxamide], the IC50 is 13 nM.
On to `NC1=N[C@@]2(c3cc(NC(=O)c4ccc(OCF)cn4)ccc3F)CCC[C@H]2CS1` (relative stereo) [Example 23, N-[3-((4aR*,7aS*)-2-amino-4a,5,6,7-tetrahydro-4H-cyclopenta[d][1,3]thiazin-7a-yl)-4-fluorophenyl]-5-fluoromethoxypyridine-2-carboxamide], for which the IC50 was determined as 10 nM.
With `N#Cc1ccc(C(=O)Nc2ccc(F)c([C@]34COC[C@H]3CSC(N)=N4)c2)nc1` (relative stereo) [Example 24, N-[3-((4aS*,7aS*)-2-amino-4a,5-dihydro-4H-furo[3,4-d][1,3]thiazin-7a-yl)-4-fluorophenyl]-5-cyanopyridine-2-carboxamide] the figure was 4.3 nM; with `NC1=N[C@@]2(c3cc(NC(=O)c4cnc(OC(F)F)cn4)ccc3F)COC[C@H]2CS1` (relative stereo) [Example 25, N-[3-((4aS*,7aS*)-2-amino-4a,5-dihydro-4H-furo[3,4-d][1,3]thiazin-7a-yl)-4-fluorophenyl]-5-difluoromethoxypyrazine-2-carboxamide], 6.1 nM.
In the case of `NC1=N[C@@]2(c3cc(NC(=O)c4ccc(Cl)cn4)ccc3F)COC[C@H]2CS1` (relative stereo) [Example 26, N-[3-((4aS*,7aS*)-2-amino-4a,5-dihydro-4H-furo[3,4-d][1,3]thiazin-7a-yl)-4-fluorophenyl]-5-chloropyridine-2-carboxamide], the half-maximal inhibitory concentration (IC50) was determined as 6.9 nM.
As for `NC1=N[C@@]2(c3cc(NC(=O)c4cnc(OC(F)F)cn4)ccc3F)CCOC[C@H]2CS1` (relative stereo) [Example 29, N-[3-((4aS*,8aS*)-2-amino-4a,5,7,8-tetrahydro-4H-6-oxa-3-thia-1-azanaphthalen-8a-yl)-4-fluorophenyl]-5-difluoromethoxypyrazine-2-carboxamide], the IC50 was 4 nM.
For `NC1=N[C@@]2(c3cc(NC(=O)c4ccc(Cl)cn4)ccc3F)CCOC[C@H]2CS1` (relative stereo) [Example 30, N-[3-((4aS*,8aS*)-2-amino-4a,5,7,8-tetrahydro-4H-6-oxa-3-thia-1-azanaphthalen-8a-yl)-4-fluorophenyl]-5-chloropyridine-2-carboxamide], the IC50 stood at 11 nM.

These data come from patent publication US20100317850A1 (priority 2008, published 2010).
